Assay [1] deals with T1, Chymotrypsinogen A (Bos taurus, UniProt P00766). The assay is described as follows: Inhibition constant for inhibition of alpha-chymotrypsin by the UV light.
Assay [2] addresses T1, Chymotrypsinogen A. The assay can be described thus: Inhibition constant for inhibition of alpha-chymotrypsin by the ambient light.

Consider `COC(=O)C(=O)[C@H](Cc1ccccc1)NC(=O)OCc1ccc(/N=N/c2ccccc2)cc1`, for which the results for the Ki on Chymotrypsinogen A [1] and at Chymotrypsinogen A [2] were 0.29 µM and 0.77 µM, respectively.

In the case of `COC(=O)C(=O)[C@H](Cc1ccccc1)NC(=O)c1ccc(/N=N/c2ccccc2)cc1`, the Ki on Chymotrypsinogen A [1] is 0.13 µM; on Chymotrypsinogen A [2], 0.24 µM.

As a reminder, the Ki is a dissociation constant, usually derived from enzyme kinetics or from competition with a known ligand.

Source of the values: ChEMBL document CHEMBL1134738, “Alpha-ketoester-based photobiological switches: synthesis, peptide chain extension and assay against alpha-chymotrypsin” (Bioorg Med Chem Lett, 2001).
